Results on three compounds are retold here after patent publication US12679839B2, “Cyclin-dependent kinase 7 (CDK7) non-covalent inhibitors” (JANSSEN PHARMACEUTICA NV, priority 2020, dated 2026).

The target of test [1] is T1, CDK7/Cyclin H/MAT-1 complex (Homo sapiens, UniProt P50613).
T1 construct: Human CDK7 (amino acids 1-346); His6 (N); TEV protease cleavage site (N); made in house; host or cells: baculovirus-SF9 insect cells
Kind of test: Flint assay, end-point fluorescence (5 nM CDK7/Cyclin H/MAT-1 complex). The class given is biochemical. Particulars: read-out: CDK7 (5 nM) pIC50 (converted). The method, then: Human CDK7 (amino acids 1-346) containing an N-terminal His6-tag followed by a tobacco etch virus (TEV) protease cleavage site, human MAT1 (amino acids 1-309) and human cyclin H (amino acids 1-323) were co-expressed in the baculovirus-SF9 insect cell expression system to generate a trimeric complex. Cell pellets were collected 72 h post-infection and were resuspended by Dounce homogenization in 20 mM Hepes-NaOH (pH 8.0), 300 mM NaCl, 10% glycerol, 2 mM dithiothreitol DTT), and 20 mM Imidazole supplemented with cOmplete™ Protease Inhibitor Cocktail (Roche) and 25 U/mL Benzonase® Nuclease HC according to the manufacturer's instructions. Cells were lysed by passing through a Microfluidics M110Y Microfluidizer 3 times at 600 kPa followed by centrifugation at 38,000×g at 4° C. for 1 hour. The supernatant was loaded onto a pre-equilibrated HisTrap HP column and eluted in 20 mM Hepes-NaOH (pH 8.0), 50 mM NaCl, 10% glycerol, 2 mM DTT, and 400 mM Imidazole. The eluate was further purified by gel filtration on a Superdex S200 16/60 column and eluted with 20 mM Hepes-NaOH (pH 7.5), 50 mM NaCl, 10% Glycerol, 2 mM DTT. Fractions containing a trimeric complex of CDK7, cyclin H, and MAT1 in a 1:1:1 ratio were pooled and concentrated to 3 mg/mL in a 10 kDa MWCO concentrator, and diluted to a final concentration of 1.6 mg/mL in 11.1 mM Hepes-NaOH (pH 8.0), 27.8 mM NaCl, 1.1 mM DTT and 50% glycerol.
Compounds with potencies approaching the limit of detection of the assay (IC50≤10 nM) were further assessed in a more sensitive fluorescence end-point assay.
[formula] where νo is the rate in the absence of inhibitor, νmin is the rate at highest inhibitor concentration, and h is the Hill coefficient. Flint Assay (5 nM CDK7/Cyclin H/MAT-1 Complex)
The continuous absorbance assay was converted to an end-point fluorescence assay following the NADH fluorescence signal decrease at the excitation and emission wavelengths of 340 nm and 440 nm, respectively.
Under the same concentrations of substrates and coupling reagents used in the absorbance assay, the fluorescence assay was performed at a reduced concentration of the CDK7/Cyclin H/MAT-1 complex of 5 nM (final concentration) with a reaction time of 24 hours. The percent of inhibition was calculated by the following equation. Percent of inhibition=(Sample−NC)/(PC−NC)*100 where NC is the mean if negative control (reaction without inhibitor), and PC is the mean of positive control (reaction with complete inhibition).
Dosing curves were fitted using the following equation to obtain IC50: Y=Bottom+(Top−Bottom)/(1+10^((log IC50−X)*Hill slope)) where X=log10 of the compound concentration; top and bottom can be defined by PC and NC respectively. Imaging-Based Cellular RNA PolII Ser5 Phosphorylation Assay

Test [2] addresses T1, CDK7/Cyclin H/MAT-1 complex. Kind of test: Absorbance kinetic assay (20 nM CDK7/Cyclin H/MAT-1 complex). The class given is biochemical. The settings on record: read-out: CDK7 (20 nM) pIC50 (converted). In outline:
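Trimeric complex (His6-TEV CDK7 1-346, MAT1 1-309, cyclin H 1-323) from Sf9 cells, at 20 nM, phosphorylating RNA Pol II-derived CDK7/9-tide; ADP coupled via PK/LDH to NADH depletion read at 340 nm every 2 min for 8 h. Steady-state slopes gave % inhibition; IC50 from 11-point Hill fit.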

The structures appear in SMILES notation.

T1 sequence (P50613 whole entry, the tested form may be a part): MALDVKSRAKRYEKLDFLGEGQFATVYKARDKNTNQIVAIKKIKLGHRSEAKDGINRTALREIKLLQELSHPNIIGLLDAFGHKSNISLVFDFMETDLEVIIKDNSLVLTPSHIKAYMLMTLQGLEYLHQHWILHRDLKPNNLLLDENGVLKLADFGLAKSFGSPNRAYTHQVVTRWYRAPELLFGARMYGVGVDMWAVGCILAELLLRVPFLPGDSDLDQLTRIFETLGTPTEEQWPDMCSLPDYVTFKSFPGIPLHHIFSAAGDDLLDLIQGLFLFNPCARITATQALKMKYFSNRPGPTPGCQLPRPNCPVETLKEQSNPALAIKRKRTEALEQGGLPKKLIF
T1 sequence (P51946 whole entry partner, the tested form may be a part): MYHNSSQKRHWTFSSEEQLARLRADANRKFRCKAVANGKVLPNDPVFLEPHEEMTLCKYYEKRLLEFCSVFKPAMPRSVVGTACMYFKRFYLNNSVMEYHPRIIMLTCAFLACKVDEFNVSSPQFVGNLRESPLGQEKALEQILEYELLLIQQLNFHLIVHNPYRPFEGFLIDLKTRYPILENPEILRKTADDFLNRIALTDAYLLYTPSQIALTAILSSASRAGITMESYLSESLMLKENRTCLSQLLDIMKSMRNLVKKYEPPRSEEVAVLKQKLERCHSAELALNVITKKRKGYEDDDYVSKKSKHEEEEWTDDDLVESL
T1 sequence (P51948 whole entry partner, the tested form may be a part): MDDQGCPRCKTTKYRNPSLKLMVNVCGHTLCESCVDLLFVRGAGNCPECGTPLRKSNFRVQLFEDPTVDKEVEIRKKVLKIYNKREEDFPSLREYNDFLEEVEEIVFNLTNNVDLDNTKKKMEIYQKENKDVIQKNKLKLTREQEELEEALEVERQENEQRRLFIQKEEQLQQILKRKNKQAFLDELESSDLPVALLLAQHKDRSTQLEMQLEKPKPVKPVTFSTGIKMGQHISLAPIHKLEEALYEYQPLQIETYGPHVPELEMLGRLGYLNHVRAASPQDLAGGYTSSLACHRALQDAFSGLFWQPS

Consider `C[C@@H]1Cc2cnc(N[C@H]3CCN(C)C(=O)C3)nc2CN1C(=O)[C@H]1CCN(C)C[C@@H]1c1ccccc1` (relative stereo) [Compound 5], for which the figures for the IC50 in test [1] and in test [2] were 2.14 nM and below 9.77 nM, respectively.
Taken in the same sequence, the figures for `C[C@@H]1Cc2cnc(NCc3ccn(C)n3)nc2CN1C(=O)[C@@H]1CCN(C)C[C@H]1c1ccccc1F` (relative stereo) [Compound 130] were 7.94 nM and 38 nM.
On to `C[C@@H]1Cc2cnc(NCc3ccn(C)n3)nc2CN1C(=O)[C@H]1CCN(C)C[C@@H]1c1ccccc1F` (relative stereo) [Compound 131], for which the figures for the IC50 in test [1] and in test [2] were 9.12 nM and 61.7 nM, respectively.
